Series [1] has as its target serine hydroxymethyl transferase (SHMT) apoenzyme. The conditions noted are these: cited from earlier work.
The nature of series [2]: Erythrocyte pharmacokinetics of vitamin B6 after intraperitoneal high-dose pyridoxine or pyridoxamine in mice. To be noted: erythrocytes, 450 mg/kg intraperitoneal.
Experimental: Erythrocyte pyridoxamine 5′-phosphate (PMP) and pyridoxal 5′-phosphate (PLP) levels were measured in mice after intraperitoneal administration of high doses of pyridoxine (PN) or pyridoxamine (PM).
The target in series [3] is T1, pyridoxine (pyridoxamine) 5′-phosphate oxidase (PNPOx) (Homo sapiens, UniProt Q9NVS9).
T1 sequence (Q9NVS9 1-261): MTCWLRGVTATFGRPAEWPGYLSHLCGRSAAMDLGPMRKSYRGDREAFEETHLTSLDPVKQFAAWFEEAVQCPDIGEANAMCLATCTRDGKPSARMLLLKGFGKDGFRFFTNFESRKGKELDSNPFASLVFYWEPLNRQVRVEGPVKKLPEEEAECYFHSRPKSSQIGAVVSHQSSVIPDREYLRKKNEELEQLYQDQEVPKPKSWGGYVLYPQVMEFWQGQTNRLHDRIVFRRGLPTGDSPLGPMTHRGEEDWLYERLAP
To be noted: read-out: Km of PNPOx; cited from earlier work.

Series [4] can be described thus: Pilot study in patients with advanced breast carcinoma: assessment of toxicity. The conditions noted are these: human, in vivo. The source says:
Doxorubicin comprised in FAC and AVCF regimens was suspended in case of ≥10% decrease in left ventricular ejection fraction from baseline value. […] Vinorelbine-containing chemotherapy (i.e., VCbF) was indicated instead of TCbF for patients who had severe hematopoietic impairment or prior taxane-induced toxicity and was used in substitution for TCbF in cases of paclitaxel-induced SPN occurring in patients throughout the study.
Patients with paclitaxel induced neuropathy, whose chemotherapy was either interrupted or pursued with VCbF had further progressive decrease of neurologic symptoms, and then disappearance occurring in most patients during follow-up. […] Except for interruption of paclitaxel as described above, no dose reductions of any cytostatic agent or increasing intervals between courses due to unusual or unexpectedly excessive hematologic and/or visceral toxicity were required. The single case of acute myelogenous leukemia carrying the 17q-chromosome aberration marker occurred 18 months after cessation of induction treatment in one patient who had prior genotoxic cytostatics and radiotherapy.

For series [5] the following is noted: cited from earlier work.

Read-outs that look alike come from different tables or passages of the source. Some results are limits rather than exact numbers.

The source of these data is US20240415837A1, “PHARMACOLOGIC MODULATION OF 5-FLUOROURACIL BY FOLINIC ACID AND VITAMIN B6 FOR THE TREATMENT OF PATIENTS WITH CARCINOMA” (priority 2021, published 2024).

With `Cc1ncc(COP(=O)(O)O)c(C=O)c1O` [PLP, pyridoxal 5′-phosphate], the Kd (as a rule, a measure of binding affinity in units of concentration) in series [1] (read-out: Kd of SHMT binding to cofactor, lower end of reported range) is at least 0.25 µM; in series [1] (read-out: Kd of SHMT binding to cofactor, upper end of reported range), at most 27 µM.

As to `Cc1ncc(CO)c(CN)c1O` [PM, pyridoxamine], in series [2], the “AUC 12 h of B6 vitamer: PLP” value is 14,988 nmol/L cells · 12 h and the “AUC 12 h of B6 vitamer: PMP” value was 19,356 nmol/L cells · 12 h.

With `Cc1ncc(COP(=O)(O)O)c(CN)c1O` [PMP, pyridoxamine 5′-phosphate], in series [3], the Km (usually the concentration of substrate that gives half-maximal velocity) is 1 µM.

As to `Cc1ncc(CO)c(CO)c1O` [PN, pyridoxine], the “sensory peripheral neuropathy with high cumulative doses of pyridoxine, versus that expected with paclitaxel in TCbF” value in series [4] was “not accompanied with greater incidence, or higher grades, of sensory peripheral neuropathy”. Besides, in series [2], the “AUC 12 h of B6 vitamer: PLP” value was 2,231 nmol/L cells · 12 h and the “AUC 12 h of B6 vitamer: PMP” value is 11,597 nmol/L cells · 12 h. In series [5] (extremely high doses for long periods of time), the toxicity in man result is “sensory peripheral neuropathy”. For the same molecule, the safety in man result in series [5] (high doses used for treatment of various conditions) was “safe”.
